Experimental data: PubChem BioAssay (NCI)
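Briefly, cells in 96-well plates were exposed to five compound concentrations for 48 h, and endpoints were estimated by linear interpolation. GI50 marks 50% less growth. TGI denotes the concentration required for complete inhibition of growth.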

What was measured:
Assay in all cases: NCI tumour cell line growth inhibition, 48 h
[1] = system: HOP-18 NSCLC
[2] = system: KM20L2 colon
[3] = system: M19-MEL melanoma
[4] = system: SNB-78 CNS
[5] = system: XF 498 CNS
[6] = system: RXF-631 renal
[7] = system: P388 leukemia
[8] = system: SN12K1 renal
[9] = system: P388/ADR leukemia

Row | SMILES | TGI [1] [µM] | TGI [2] [µM] | TGI [3] [µM] | TGI [4] [µM] | TGI [5] [µM] | TGI [6] [µM] | TGI [7] [µM] | TGI [8] [µM] | TGI [9] [µM] | GI50 [1] [µM]
1 | N=S(=O)(c1ccccc1)c1ccccc1 | > 100 | > 100 | > 100 | > 100 |  |  |  |  |  | 
2 | Brc1c2nc3ccccc3nc2n2ccc3ccccc3c12 |  | > 100 | > 100 | > 100 | > 100 |  |  |  |  | 
3 | C[N+](C)=c1ccc2nc3c(ccc4ccccc43)oc-2c1 | 23.6 | 27.1 | 12.5 | 20.8 | 27.4 | 20.8 |  |  |  | 
4 | N#CNC(=NCc1ccccc1)NCCc1c[nH]c2ccccc12 |  | > 100 | > 100 | > 100 | > 100 |  |  |  |  | 
5 | Cc1c(-c2coc(-c3ccccc3)n2)c(=O)n(-c2ccccc2)n1C |  | > 100 | > 100 | > 100 | 81.7 |  |  |  |  | 
6 | C/C=C/c1cc2c(c(=O)o1)C(=O)[C@@H](O)[C@H](C)O2 | 31.9 | 30.5 | 27.2 | 42 |  |  | 7.15 | 31.8 |  | 
7 | C=C1C2C[C@@H]3OC4CC5O[C@]6(CC5OC4C(C)C3OC(=O)CC3CC[C@@H]4OC5C7OC8C[C@](CCC9CC(=C)[C@H](CCC(C[C@H]1C)O2)O9)(OC7C4O3)O[C@@H]85)C[C@@H]1O[C@@]2(CC(C)[C@@H]3OC(CC(=O)CCO)C(O)C[C@@H]3O2)CC(C)[C@@H]1O6 (stereo not given in full) |  | < 0.001 |  | 1.98 |  |  |  |  |  | 
8 | O=C(NC12CC3CC(CC(C3)C1)C2)C(=O)c1c[nH]c2ccc(Br)cc12 | 44.1 | > 100 |  | > 100 |  |  |  |  |  | 
9 | CO[C@H]1CC[C@]2(C)C3=CC[C@@]4(C)C(CC[C@@H]4C(C)CC[C@@H](C)C(C)C)C(=CCC2C1)O3 (stereo not given in full) | > 25 | > 25 | > 25 | > 25 | > 25 |  |  |  |  | 
10 | Cc1c(OCCCOc2ccc3c(=O)cc(-c4ccccc4)oc3c2C)ccc2c(=O)cc(-c3ccccc3)oc12 | > 100 | > 100 | > 100 | > 100 | > 100 |  |  |  |  | 
11 | C[N+](C)(C)CCOC(=O)/C=C/c1cnc[nH]1 | > 500 | > 500 | > 500 | > 500 | > 500 |  | > 500 | > 500 | > 316 | 
12 | COC1=CC(=O)C2C(C1=O)[C@@H]1c3ccccc3OC(C)(C)[C@H]21 (stereo not given in full) |  | 66.3 | 34.5 | 41.5 | 32.1 |  |  |  |  | 
13 | COc1cccc2c1C(=O)c1c(O)c3c(c(O)c1C2=O)C[C@@](O)(C(=O)CN1CCOCC1)C[C@@H]3OC1CC(N)C(O)C(C)O1 (stereo not given in full) | 22 | 71.5 | 18.1 |  | 8.33 |  | 2.29 | 30.1 | 71.7 | 1.43
14 | Nc1ncnc2c1sc(=S)n2-c1ccccc1 | > 100 | > 100 | > 100 | > 100 | > 100 |  |  |  |  | 
15 | COc1cc(N)c2[nH]c3c(C)ccc(C)c3c2c1 |  |  | > 100 | > 100 | > 100 |  |  |  |  | 
16 | NC(=O)COc1c(Br)cc(Br)cc1Br |  | > 100 | > 100 |  | > 100 | > 100 |  |  |  | 
17 | N=c1n(CC(=O)NC23CC4CC(CC(C4)C2)C3)c2ccccc2n1CC(=O)NC12CC3CC(CC(C3)C1)C2 | 4.5 | 3.2 | 3.09 | 6.38 | 2.93 |  |  |  |  | 
